Experimental data from patent US20230081426A1, “COMPOUNDS AND METHODS FOR KRAS MODULATION AND INDICATIONS THEREFOR” (Plexxikon Inc., priority 2020, published 2023).

Tests used:
[1] = target: T1, G12V-mutant human KRAS (amino acid residues 1-188) (Homo sapiens, UniProt P01116, G12V); experiment: KRAS Binding Competition Assay (AlphaScreen; biotinylated KRpep-2d analogue), G12V; conditions: geometric mean, read-out: KRAS GMean IC50 (uM) MUTATION: G12V
T1 construct: G12V-mutant human KRAS (amino acid residues 1-188) with FLAG tag was purified from E. coli; made in house; host or cells: E. coli

[2] = target: T2, G12C-mutant human KRAS (amino acid residues 1-188) (Homo sapiens, UniProt P01116, G12C); experiment: KRAS Binding Disruption Assay (AlphaScreen; biotinylated KRpep-2d analogue or RAF1-RBD), G12C; conditions: geometric mean, read-out: KRAS GMean IC50 (uM) MUTATION: G12C
T2 construct: G12D or G12C-mutant human KRAS (amino acid residues 1-188) with FLAG tag; made in house; host or cells: E. coli
Summary of the method: (§1)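 Displacement format with mutant KRAS, biotinylated KRpep-2d analogue or RAF1-RBD (5-20 nM each) at pH 7.5 with 5 mM MgCl2.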

[3] = target: T3, G12D-mutant human KRAS (amino acid residues 1-188) (Homo sapiens, UniProt P01116, G12D); experiment: KRAS Binding Disruption Assay (AlphaScreen; biotinylated KRpep-2d analogue or RAF1-RBD), G12D; conditions: KRAS G12D; geometric mean; read-out: KRAS GMean IC50 (uM) MUTATION: G12D
T3 construct: G12D or G12C-mutant human KRAS (amino acid residues 1-188) with FLAG tag; made in house; host or cells: E. coli
Summary of the method: as §1

Measured: IC50

O=C1NC(=O)[C@H](CC(=O)N2[C@@H]3CC[C@H]2CN(c2nc(OCC45CCCN4CCC5)nc4c(F)c(-c5cc(O)cc6ccccc56)ccc24)C3)N1 [P-0415, (S)-5-(2-((1R,5S)-3-(8-fluoro-7-(3-hydroxynaphthalen-1-yl)-2-((tetrahydro-1H-pyrrolizin-7a(5H)-yl)methoxy)quinazolin-4-yl)-3,8-diazabicyclo[3.2.1]octan-8-yl)-2-oxoethyl)imidazolidine-2,4-dione]
0.0001 to 10 µM: all assays above

O=C1NC(=O)/C(=C/C(=O)N2[C@@H]3CC[C@H]2CN(c2nc(OCC45CCCN4CCC5)nc4c(F)c(-c5cc(O)cc6ccccc56)ccc24)C3)S1 [P-0443, (Z)-5-(2-((1R,5S)-3-(8-fluoro-7-(3-hydroxynaphthalen-1-yl)-2-((tetrahydro-1H-pyrrolizin-7a(5H)-yl)methoxy)quinazolin-4-yl)-3,8-diazabicyclo[3.2.1]octan-8-yl)-2-oxoethylidene)thiazolidine-2,4-dione]
0.0001 to 10 µM: all assays above

CN1CCC[C@H]1COc1nc(N2C[C@H]3CC[C@@H](C2)N3C(=O)CC2SC(=O)NC2=O)c2cc(F)c(-c3cc(O)cc4ccccc34)c(F)c2n1 (stereo partly drawn) [P-0463, 5-(2-((1R,5S)-3-(6,8-difluoro-7-(3-hydroxynaphthalen-1-yl)-2-(((S)-1-methylpyrrolidin-2-yl)methoxy)quinazolin-4-yl)-3,8-diazabicyclo[3.2.1]octan-8-yl)-2-oxoethyl)thiazolidine-2,4-dione]
0.0001 to 10 µM: all assays above

C=CC(=O)N1[C@@H]2CC[C@H]1CN(c1nc(OC[C@@]34CCCN3C[C@H](F)C4)nc3c(F)c(-c4cc(O)cc5cccc(Cl)c45)ccc13)C2 [P-0502, 1-((1R,5S)-3-(7-(8-chloro-3-hydroxynaphthalen-1-yl)-8-fluoro-2-(((2R,7aS)-2-fluorotetrahydro-1H-pyrrolizin-7a(5H)-yl)methoxy)quinazolin-4-yl)-3,8-diazabicyclo[3.2.1]octan-8-yl)prop-2-en-1-one]
0.0001 to 10 µM: all assays above

N#CCC(=O)N1[C@@H]2CC[C@H]1CN(c1nc(OC[C@@]34CCCN3C[C@H](F)C4)nc3c(F)c(-c4cc(O)cc5cccc(Cl)c45)ccc13)C2 [P-0504, 3-((1R,5S)-3-(7-(8-chloro-3-hydroxynaphthalen-1-yl)-8-fluoro-2-(((2R,7aS)-2-fluorotetrahydro-1H-pyrrolizin-7a(5H)-yl)methoxy)quinazolin-4-yl)-3,8-diazabicyclo[3.2.1]octan-8-yl)-3-oxopropanenitrile]
0.0001 to 10 µM: all assays above

Oc1cc(-c2ccc3c(N4C[C@H]5CC[C@@H](C4)N5)nc(OC[C@@]45CCCN4C[C@H](F)C5)nc3c2F)c2c(Cl)cccc2c1 [P-0510, 4-(4-((1R,5S)-3,8-diazabicyclo[3.2.1]octan-3-yl)-8-fluoro-2-(((2R,7aS)-2-fluorotetrahydro-1H-pyrrolizin-7a(5H)-yl)methoxy)quinazolin-7-yl)-5-chloronaphthalen-2-ol]
0.0001 to 10 µM: all assays above
